This is an account of results in PMC5138282, “Glyphosate-Resistant Parthenium hysterophorus in the Caribbean Islands: Non Target Site Resistance and Target Site Resistance in Relation to Resistance Levels” (Frontiers in Plant Science, 2016).

Read-outs that look alike come from different tables or passages of the source.

Experiment [1] has as its system 5-enolpyruvylshikimate-3-phosphate synthase (EPSPS), P. hysterophorus accessions from Cuba. Description: phosphate release (EnzCheck phosphate assay kit), leaf extract. The format is biochemical, Parthenium hysterophorus. As to conditions: read-out: I50 (μM)^a.
Experiment [2] concerns 5-enolpyruvylshikimate-3-phosphate synthase (EPSPS), P. hysterophorus accessions from Dominican Republic. As to conditions: read-out: I50 (μM)^a, natural mutant, native extract, other EPSPS alleles/copies not excluded, buffer as for Cu-S, stated gain. From the text:
phosphate release (EnzCheck phosphate assay kit), leaf extract on 5-enolpyruvylshikimate-3-phosphate synthase (EPSPS), P. hysterophorus accessions from Dominican Republic

Experiment [3] has the same test system. Description: phosphate release (EnzCheck phosphate assay kit), leaf extract. To be noted: buffer as for Cu-S, read-out: I50 (μM)^a. The format is biochemical, Parthenium hysterophorus.
The subject of experiment [4] is 5-enolpyruvylshikimate-3-phosphate synthase (EPSPS), P. hysterophorus accessions from Cuba. As to conditions: read-out: I50 (μM)^a; accession Cu-R1; natural mutant, native extract, other EPSPS alleles/copies not excluded; buffer as for Cu-S; stated gain. From the text:
phosphate release (EnzCheck phosphate assay kit), leaf extract on 5-enolpyruvylshikimate-3-phosphate synthase (EPSPS), P. hysterophorus accessions from Cuba

Consider `O=C(O)CNCP(=O)(O)O` [glyphosate, (N-phosphonomethyl)-glycine], for which the IC50 in experiment [1] (accession Cu-R2 (resistant plants, no Pro106 change), buffer as for Cu-S) stood at 18.9 ± 1.4 µM; in experiment [1] (accession Cu-R3 (resistant plants, no Pro106 change), buffer as for Cu-S) it was 17.4 ± 2.8 µM; in experiment [1] (accession Cu-S (susceptible), 100 mM MOPS, 1 mM MgCl2, 10% glycerol, 2 mM sodium molybdate, 200 mM NaF) it was 13.6 ± 2.2 µM; in experiment [2] (accession Do-R1), 468 ± 22 µM; in experiment [2] (accession Do-R2), 411 ± 26.1 µM; in experiment [3] (accession Do-R3 (resistant plants, no Pro106 change)), 22.6 ± 1.5 µM. Moreover, the IC50 in experiment [3] (accession Do-R4 (resistant plants, no Pro106 change)) is 20.8 ± 6.1 µM; in experiment [3] (accession Do-S (susceptible)), 18.5 ± 5.7 µM; in experiment [4] it was 646 ± 35.8 µM.
